Test results from the NIST ThermoML archive (doi:10.1021/je030223f).
“And” between values parts separate entries of the source, which are not always exact repeats. Identical values can stand only once.

Conditions: Liquid, Calculated from knudsen effusion weight loss

[Br-].[Br-].[Br-].[Tm+3] [thulium tribromide]
Conditions	vapor or sublimation pressure
921 K	0.0001148 kPa
924 K	0.0001259 kPa
927 K	0.0001349 kPa
931 K	0.0002042 kPa
937 K	0.0002042 kPa
938 K	0.0002188 kPa and 0.0002754 kPa
942 K	0.0002291 kPa
947 K	0.000309 kPa and 0.0004074 kPa
949 K	0.0003467 kPa
952 K	0.0004074 kPa
953 K	0.0003631 kPa
956 K	0.0004571 kPa
958 K	0.0005888 kPa
961 K	0.0005012 kPa
964 K	0.0006607 kPa
965 K	0.0006607 kPa
967 K	0.0007762 kPa
968 K	0.000631 kPa
971 K	0.0007244 kPa
974 K	0.0009772 kPa
976 K	0.000912 kPa
978 K	0.001096 kPa
980 K	0.0009772 kPa
984 K	0.001318 kPa
987 K	0.001288 kPa
988 K	0.001514 kPa and 0.001349 kPa
990 K	0.001445 kPa
995 K	0.001622 kPa
999 K	0.002399 kPa
1000 K	0.001995 kPa
1001 K	0.002239 kPa
1004 K	0.00257 kPa and 0.002291 kPa
1006 K	0.002692 kPa
1007 K	0.002455 kPa
1009 K	0.003236 kPa and 0.002951 kPa
1013 K	0.003236 kPa and 0.004074 kPa
1015 K	0.003467 kPa and 0.003162 kPa
1019 K	0.003548 kPa
1020 K	0.004571 kPa and 0.004677 kPa
1022 K	0.00537 kPa
1024 K	0.004365 kPa
1025 K	0.004677 kPa
1026 K	0.004786 kPa
1027 K	0.004571 kPa
1028 K	0.005623 kPa
1030 K	0.005623 kPa
1033 K	0.005495 kPa
1035 K	0.006607 kPa
1037 K	0.005754 kPa
1038 K	0.007762 kPa
1039 K	0.006918 kPa
1042 K	0.006607 kPa
1043 K	0.008511 kPa
1046 K	0.00955 kPa
1048 K	0.01288 kPa
1050 K	0.00955 kPa
1056 K	0.01349 kPa
1061 K	0.01445 kPa
1063 K	0.01318 kPa
1066 K	0.01995 kPa
1070 K	0.01995 kPa
1073 K	0.02754 kPa
1076 K	0.02512 kPa
1080 K	0.0263 kPa
1088 K	0.03388 kPa
1089 K	0.04074 kPa
1092 K	0.03467 kPa
1096 K	0.04266 kPa
1103 K	0.04677 kPa
1105 K	0.06457 kPa
1107 K	0.06166 kPa
1116 K	0.06761 kPa
1118 K	0.07943 kPa
1123 K	0.09772 kPa
1127 K	0.1047 kPa and 0.09333 kPa
1135 K	0.1288 kPa
1136 K	0.1349 kPa
1143 K	0.166 kPa
1155 K	0.2138 kPa

[I][Tm]([I])[I] [thulium triiodide]
Conditions	vapor or sublimation pressure
887 K	0.0001318 kPa
888 K	7.763e-05 kPa
897 K	0.0001585 kPa
899 K	0.0001175 kPa
902 K	0.0002089 kPa
905 K	0.0002344 kPa and 0.0001698 kPa
906 K	0.0002291 kPa and 0.0001585 kPa
907 K	0.0002089 kPa
909 K	0.0001585 kPa
911 K	0.0002884 kPa
912 K	0.0003162 kPa and 0.0002089 kPa
914 K	0.000309 kPa and 0.0002344 kPa
916 K	0.0002884 kPa and 0.0002089 kPa
920 K	0.0004467 kPa and 0.0004571 kPa
921 K	0.0003715 kPa
922 K	0.0003162 kPa
923 K	0.0003388 kPa
925 K	0.0004169 kPa and 0.0002884 kPa
928 K	0.0005012 kPa
930 K	0.000631 kPa and 0.0006607 kPa
931 K	0.0004169 kPa
932 K	0.000537 kPa and 0.0004677 kPa
933 K	0.000389 kPa
936 K	0.0006607 kPa
938 K	0.0008318 kPa and 0.0005495 kPa
939 K	0.0007079 kPa and 0.000912 kPa
940 K	0.0005248 kPa
941 K	0.0006607 kPa
946 K	0.000955 kPa and 0.001122 kPa
947 K	0.0007586 kPa
948 K	0.001148 kPa and 0.000955 kPa
949 K	0.0007244 kPa
951 K	0.0009772 kPa
953 K	0.001148 kPa
954 K	0.001479 kPa
955 K	0.001318 kPa and 0.001047 kPa
956 K	0.001585 kPa and 0.0009333 kPa
959 K	0.00182 kPa
960 K	0.001288 kPa
961 K	0.001445 kPa and 0.001905 kPa
963 K	0.001738 kPa and 0.001349 kPa
964 K	0.00123 kPa
966 K	0.002089 kPa and 0.002291 kPa and 0.001585 kPa
968 K	0.002754 kPa
969 K	0.001862 kPa
970 K	0.002512 kPa
971 K	0.002344 kPa and 0.001585 kPa
973 K	0.00257 kPa and 0.001862 kPa
975 K	0.002512 kPa
976 K	0.003631 kPa and 0.002951 kPa and 0.002138 kPa
978 K	0.003388 kPa
980 K	0.00309 kPa and 0.002042 kPa
981 K	0.002818 kPa and 0.002399 kPa
983 K	0.004365 kPa
984 K	0.002754 kPa
987 K	0.004571 kPa
988 K	0.00389 kPa
989 K	0.002818 kPa and 0.00309 kPa
991 K	0.005495 kPa and 0.005012 kPa
993 K	0.003548 kPa
999 K	0.007079 kPa and 0.00631 kPa
1002 K	0.004898 kPa
1006 K	0.009333 kPa
1008 K	0.00871 kPa
1014 K	0.01122 kPa
1017 K	0.01148 kPa
1024 K	0.01514 kPa
1025 K	0.01445 kPa
1032 K	0.01995 kPa
1034 K	0.0195 kPa
1043 K	0.02818 kPa and 0.0257 kPa
1051 K	0.03715 kPa and 0.03311 kPa
